Laboratory results: PubChem BioAssay AID2060613 (Molecular Pharmacology Branch, DTP, NCI, 2025)
pIC50: −log10 of the molar value. Several values for one entry are separate records, joined by “and”; a condition that tells them apart may be missing. Equal values may be shown once.

Tested on: 233499-124-R-J3-PDC complex spheroid viability
Test: Anticancer human tumor 233499-124-R-J3-PDC patient-derived colon adenocarcinoma cell line growth inhibition [CLK]
Details: for viability, T/C: stronger effect = lower value
Method in brief: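 Patient-derived tumor cells grown as complex spheroids with HUVEC endothelial cells and mesenchymal stem cells, treated with drug combinations. Concentrations descend in half-log steps from near clinical Cmax, or from 10 microM if Cmax unknown.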

[1] = curve of first compound, second compound 0.0316 µM
[2] = curve of first compound, second compound 0.1 µM
[3] = curve of first compound, second compound 0.316 µM
[4] = curve of first compound, second compound 1 µM
[5] = curve of first compound, second compound 3.16 µM
[6] = curve of first compound, second compound 10 µM
[7] = second compound 0.0316 µM, first compound 0.0316 µM
[8] = second compound 0.0316 µM, first compound 0.1 µM
[9] = second compound 0.0316 µM, first compound 0.316 µM
[10] = second compound 0.0316 µM, first compound 1 µM
[11] = second compound 0.0316 µM, first compound 3.16 µM
[12] = second compound 0.0316 µM, first compound 10 µM
[13] = second compound 0.1 µM, first compound 0.0316 µM
[14] = second compound 0.1 µM, first compound 0.1 µM
[15] = second compound 0.1 µM, first compound 0.316 µM
[16] = second compound 0.1 µM, first compound 1 µM
[17] = second compound 0.1 µM, first compound 3.16 µM
[18] = second compound 0.1 µM, first compound 10 µM
[19] = second compound 0.316 µM, first compound 0.0316 µM
[20] = second compound 0.316 µM, first compound 0.1 µM
[21] = second compound 0.316 µM, first compound 0.316 µM
[22] = second compound 0.316 µM, first compound 1 µM
[23] = second compound 0.316 µM, first compound 3.16 µM
[24] = second compound 0.316 µM, first compound 10 µM
[25] = second compound 1 µM, first compound 0.0316 µM
[26] = second compound 1 µM, first compound 0.1 µM
[27] = second compound 1 µM, first compound 0.316 µM
[28] = second compound 1 µM, first compound 1 µM
[29] = second compound 1 µM, first compound 3.16 µM
[30] = second compound 1 µM, first compound 10 µM
[31] = second compound 3.16 µM, first compound 0.0316 µM
[32] = second compound 3.16 µM, first compound 0.1 µM
[33] = second compound 3.16 µM, first compound 0.316 µM
[34] = second compound 3.16 µM, first compound 1 µM
[35] = second compound 3.16 µM, first compound 3.16 µM
[36] = second compound 3.16 µM, first compound 10 µM
[37] = second compound 10 µM, first compound 0.0316 µM
[38] = second compound 10 µM, first compound 0.1 µM
[39] = second compound 10 µM, first compound 0.316 µM
[40] = second compound 10 µM, first compound 1 µM
[41] = second compound 10 µM, first compound 3.16 µM
[42] = second compound 10 µM, first compound 10 µM
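Note: spheroids exposed to the drug combinations for seven days.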
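Throughout, for viability, T/C: percent viability relative to DMSO vehicle control wells taken as 100%.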

For O=C(c1cc(Cc2n[nH]c(=O)c3ccccc23)ccc1F)N1CCN(C(=O)C2CC2)CC1 + CNC(=O)c1ccc(Nc2nc(OC3CCCC3)c3c(-c4ccc5nc(C)oc5c4)c[nH]c3n2)c(OC)c1, the pIC50 [1] was < 5.00, the pIC50 [2] was < 5.00 and the pIC50 [3] was < 5.00. The pIC50 [4] was < 5.00, the pIC50 [5] was < 5.00 and the pIC50 [6] was < 5.00. The viability, T/C [7] was 96%, the viability, T/C [8] was 91.1% and the viability, T/C [9] was 93%. The viability, T/C [10] was 102%, the viability, T/C [11] was 102% and the viability, T/C [12] was 95.7%. The viability, T/C [13] was 76.7%, the viability, T/C [14] was 84.3% and the viability, T/C [15] was 71.6%. The viability, T/C [16] was 70.1%, the viability, T/C [17] was 57.8% and the viability, T/C [18] was 55.1%. For the same molecule, the viability, T/C [19] was 75.6%, the viability, T/C [20] was 77.7% and the viability, T/C [21] was 78%. For the same molecule, the viability, T/C [22] was 78%, the viability, T/C [23] was 84.1% and the viability, T/C [24] was 76.2%. The viability, T/C [25] was 67.6%, the viability, T/C [26] was 79.6% and the viability, T/C [27] was 65.6%. It also gave a viability, T/C [28] of 71.2%, a viability, T/C [29] of 74.4% and a viability, T/C [30] of 68.4%. The viability, T/C [31] was 80%, the viability, T/C [32] was 79.1% and the viability, T/C [33] was 75.6%. For the same molecule, the viability, T/C [34] was 66.7%, the viability, T/C [35] was 87.8% and the viability, T/C [36] was 59.6%. For the same molecule, the viability, T/C [37] was 71%, the viability, T/C [38] was 85.3% and the viability, T/C [39] was 74.8%. The viability, T/C [40] was 75.2%, the viability, T/C [41] was 65% and the viability, T/C [42] was 57.1%.
COC1C=CCC(C)C(C)S(=O)(=O)NC(=O)c2ccc3c(c2)N(CC2CCC21)CC1(CCCc2cc(Cl)ccc21)CO3 (configuration not stated) + CNC(=O)c1ccc(Nc2nc(OC3CCCC3)c3c(-c4ccc5nc(C)oc5c4)c[nH]c3n2)c(OC)c1 gave a pIC50 [1] of 5.34, a pIC50 [2] of 6.87 and a pIC50 [3] of 6.87. The pIC50 [4] was 6.95, the pIC50 [5] was 7.23 and the pIC50 [6] was 6.89. For the same molecule, the viability, T/C [7] was 90.8%, the viability, T/C [8] was 93.5% and the viability, T/C [9] was 92.5%. For the same molecule, the viability, T/C [10] was 82.2%, the viability, T/C [11] was 71.2% and the viability, T/C [12] was 9.78%. The viability, T/C [13] was 83.2%, the viability, T/C [14] was 57.4% and the viability, T/C [15] was 29.4%. For the same molecule, the viability, T/C [16] was 19%, the viability, T/C [17] was 33.8% and the viability, T/C [18] was 11.7%. For the same molecule, the viability, T/C [19] was 79%, the viability, T/C [20] was 61% and the viability, T/C [21] was 19%. For the same molecule, the viability, T/C [22] was 9.42%, the viability, T/C [23] was 8.88% and the viability, T/C [24] was 9.03%. For the same molecule, the viability, T/C [25] was 81.2%, the viability, T/C [26] was 51.6% and the viability, T/C [27] was 29.8%. The viability, T/C [28] was 10.1%, the viability, T/C [29] was 9.03% and the viability, T/C [30] was 6.79%. The viability, T/C [31] was 69.2%, the viability, T/C [32] was 33.6% and the viability, T/C [33] was 19.7%. The viability, T/C [34] was 12.3%, the viability, T/C [35] was 7% and the viability, T/C [36] was 7.88%. The viability, T/C [37] was 60.6%, the viability, T/C [38] was 59.5% and the viability, T/C [39] was 17.5%. The viability, T/C [40] was 11.5%, the viability, T/C [41] was 7.72% and the viability, T/C [42] was 5.45%.
For CC(Nc1ccc2c(c1)OCCn1cc(N3C(=O)OCC3C(F)F)nc1-2)C(N)=O (configuration not stated), the viability, T/C (compound 0.0316 µM) was 94%, the viability, T/C (compound 0.1 µM) was 83.7% and the viability, T/C (compound 0.316 µM) was 79.8%. For the same molecule, the viability, T/C (compound 1 µM) was 74.8%, the viability, T/C (compound 3.16 µM) was 61.7% and the viability, T/C (compound 10 µM) was 51.9%. For the same molecule, the pIC50 (curve of compound) was < 5.00.
Molecule COc1cccc2c1C(=O)c1c(O)c3c(c(O)c1C2=O)CC(O)(C(=O)CO)CC3OC1CC(N)C(O)C(C)O1 (configuration not stated) + CNC(=O)c1ccc(Nc2nc(OC3CCCC3)c3c(-c4ccc5nc(C)oc5c4)c[nH]c3n2)c(OC)c1 has a pIC50 [1] of 6.47, a pIC50 [2] of 6.54 and a pIC50 [3] of 6.81. It also gave a pIC50 [4] of 6.85, a pIC50 [5] of 6.94 and a pIC50 [6] of 7.10. It also gave a viability, T/C [7] of 92%, a viability, T/C [8] of 85.1% and a viability, T/C [9] of 38.5%. It also gave a viability, T/C [10] of 38.5%, a viability, T/C [11] of 13.5% and a viability, T/C [12] of 6.81%. It also gave a viability, T/C [13] of 71.3%, a viability, T/C [14] of 71.7% and a viability, T/C [15] of 40.7%. It also gave a viability, T/C [16] of 34.2%, a viability, T/C [17] of 17% and a viability, T/C [18] of 2.92%. For the same molecule, the viability, T/C [19] was 61.7%, the viability, T/C [20] was 62.1% and the viability, T/C [21] was 33.8%. For the same molecule, the viability, T/C [22] was 13.8%, the viability, T/C [23] was 4.56% and the viability, T/C [24] was 1.31%. For the same molecule, the viability, T/C [25] was 51.1%, the viability, T/C [26] was 75.6% and the viability, T/C [27] was 19.3%. For the same molecule, the viability, T/C [28] was 1.71%, the viability, T/C [29] was 1.27% and the viability, T/C [30] was 0.38%. The viability, T/C [31] was 55%, the viability, T/C [32] was 53% and the viability, T/C [33] was 27.4%. The viability, T/C [34] was 1.95%, the viability, T/C [35] was 0.8% and the viability, T/C [36] was 0.35%. It also gave a viability, T/C [37] of 56.1%, a viability, T/C [38] of 48.5% and a viability, T/C [39] of 11.7%. For the same molecule, the viability, T/C [40] was 0.74%, the viability, T/C [41] was 0.74% and the viability, T/C [42] was 0.32%.
In the case of COc1ccc([C@@H](O)c2cc(-c3ncnc4cc(N5CCOCC5)ccc34)c(F)cc2Cl)nn1, the viability, T/C (compound 0.0316 µM) was 103% and 84.3%, the viability, T/C (compound 0.1 µM) was 106% and 94.1% and the viability, T/C (compound 0.316 µM) was 109% and 95.4%. The viability, T/C (compound 1 µM) was 99.8% and 91.2%, the viability, T/C (compound 3.16 µM) was 96.1% and 92.5% and the viability, T/C (compound 10 µM) was 83.5% and 79.1%. For the same molecule, the pIC50 (curve of compound) was < 5.00.
With COC1C=CCC(C)C(C)S(=O)(=O)NC(=O)c2ccc3c(c2)N(CC2CCC21)CC1(CCCc2cc(Cl)ccc21)CO3 (configuration not stated) + CN1CCN(c2cc(C(=O)Nc3cc4cc(-c5cnn(C)c5)ccc4cn3)ccn2)CC1 the pIC50 [1] was 5.41, the pIC50 [2] was 5.44 and the pIC50 [3] was 6.57. For the same molecule, the pIC50 [4] was > 7.50, the pIC50 [5] was > 7.50 and the pIC50 [6] was > 7.50. It also gave a viability, T/C [7] of 93.9%, a viability, T/C [8] of 98% and a viability, T/C [9] of 94.6%. It also gave a viability, T/C [10] of 80.2%, a viability, T/C [11] of 60.4% and a viability, T/C [12] of 7.46%. The viability, T/C [13] was 98.8%, the viability, T/C [14] was 98.6% and the viability, T/C [15] was 90.5%. For the same molecule, the viability, T/C [16] was 79.7%, the viability, T/C [17] was 57.3% and the viability, T/C [18] was 7.28%. The viability, T/C [19] was 91.5%, the viability, T/C [20] was 80% and the viability, T/C [21] was 46.5%. The viability, T/C [22] was 13.9%, the viability, T/C [23] was 30.5% and the viability, T/C [24] was 3.11%. The viability, T/C [25] was 0.62%, the viability, T/C [26] was 1.27% and the viability, T/C [27] was 0.44%. The viability, T/C [28] was 0.32%, the viability, T/C [29] was 0.78% and the viability, T/C [30] was 0.58%. The viability, T/C [31] was 0.45%, the viability, T/C [32] was 0.45% and the viability, T/C [33] was 0.5%. It also gave a viability, T/C [34] of 0.44%, a viability, T/C [35] of 0.43% and a viability, T/C [36] of 0.31%. It also gave a viability, T/C [37] of 0.31%, a viability, T/C [38] of 0.28% and a viability, T/C [39] of 0.31%. For the same molecule, the viability, T/C [40] was 0.3%, the viability, T/C [41] was 0.29% and the viability, T/C [42] was 0.22%.
